Experimental data taken from US7780989B2, “Process for the preparation of crystalline nano-particle dispersions” (AstraZeneca AB, priority 2002, dated 2010).
Read-outs that look alike come from different tables or passages of the source.

Experiment: Crystalline and amorphous solubility of the substance
Type: physicochemical
Conditions: water
Method: The solubility of the substance in water may be measured using a conventional technique. For example, a saturated solution of the substance is prepared by adding an excess amount of the substance to water at 25° C. and allowing the solution to equilibrate for 48 hours. Excess solids are removed by centrifugation or filtration and the concentration of the substance in water is determined by a suitable analytical technique such as HPLC. Without wishing to be bound by theory, it is thought that the formation of the initial suspension of amorphous particles following combination of the first solution with the aqueous phase promotes the subsequent formation of a uniform dispersion of nano-crystalline particles during the subsequent sonication. […] It is thought that the presence of the dispersion of amorphous particles during the sonication provides a reservoir of material in solution for the crystallisation step and thereby maintains a high and constant level of super-saturation relative to the crystalline solubility because of the higher amorphous solubility. The high and relatively constant degree of supersaturation provided by the presence of the amorphous particles provides favorable conditions for the formation of a large number of primary nuclei upon application of the ultrasound to the dispersion of amorphous particles. […]

SMILES: CCOC(=O)C1=C(C)NC(C)=C(C(=O)OC)C1c1cccc(Cl)c1Cl (centres unmarked) [felodipine]
- solubility (25 °C, thermodynamic from solid, crystalline form, read-out: crystalline solubility): 2 µM
- solubility (amorphous form, read-out: amorphous solubility): ~24 µM
